Data reported in patent publication US20260166017A1, “SARM1 INHIBITORS FOR USE IN THERAPY AND COSMETICS” (priority 2022, published 2026).
“Also recorded” adds a separate entry of the source.

Columns and labels:
[1] = LeWitt, 1980; Loreto et al., 2021; cited from earlier work
[2] = system: expanded mouse Schwann cells; assay: Cell death in expanded mouse Schwann cells passaged three times (phase contrast, propidium iodide); type: cell-based; details: 100 μM vacor for 72 hours vs DMSO; Schwann cells passaged three times in proliferative medium
Protocol: Mouse SCs were passaged on PLL/laminin coated dishes in the presence of low serum (0.5% horse serum), 10 ng/ml Bneuregulin1 (BNRG1), and a low concentration cyclic adenosine monophosphate (CAMP) elevating signal, such as 2 μM forskolin or 100 μM dibutryl cAMP (Arthur-Farraj et al., 2011). Full protocol is described in (Mutschler et al., 2023).

[3] = system: human primary myoblasts; assay: Cell death assay in human primary myoblasts (propidium iodide); type: cell-based; details: high dose vacor (100 μM), 24 h vs DMSO
Protocol: (§1) Human primary myoblasts and human dermal skin fibroblasts were cultured following previously described protocols (Kisiel and Klar 2019; Rozwadowska et al. 2022). Drug treatment was started when cells reached the desired confluency. To visualise cell death, 1 μg/ml propidium iodide (PI) (Thermo Fisher Scientific) was added to the media at the same time of drug addition (Loreto et al. 2021). Phase contrast and fluorescence microscopy images were acquired on a DMi8 upright fluorescence microscope (Leica microsystems) coupled to a monochrome digital camera (Hamamatsu C4742-95). The objective used was HCXPL 20 X/0.40 CORR.

[4] = system: Rat oligodendrocytes; assay: Cell death / SOX10 positive cell survival in cultured rat oligodendrocytes; type: cell-based; details: 100 μM vacor for 72 hours vs DMSO
Protocol: Sprague-Dawley neonatal (sp7) rat pups were decapitated following lethal overdose with pentobarbital. The brains were dissected and submerged into Hibernate-A low fluorescence media (Transnetyx Tissue, #HALF). The tissue was cut into 1-mm^3 pieces, washed in HBSS^−/− (Gibco, #11039047), then spun down at 100 g for 1 min at room temperature. To digest the tissue, the tissue was incubated in 34 U/mL papain (Worthington, #LS003127) and 40 μg/mL DNase I (Sigma, #D5025) in HALF, and incubated on an orbital shaker (55 rpm) for 40 min at 37° C. […] To collect the A2B5+ fraction, the MACS MS column (Miltenyi, #130-042-201) was removed from the magnetic stand (Miltenyi, #130-042-102) and cells were flushed from the column with 1 ml of prewarmed OPC medium (DMEM F/12 containing N-Acetyl cysteine (60 μg/ml, Sigma, #A9165), human recombinant insulin (10 ug/ml), sodium pyruvate (1 mM, Thermo Fisher, #11360-070), apo-transferrin (50 μg/ml, Sigma, #T2036), putrescine (16.1 μg/ml, Sigma, #P7505), sodium selenite (40 ng/ml, Sigma, #S5261), progesterone (60 ng/ml, Sigma, #P0130), bovine serum albumin (330 μg/ml, Sigma, #A4919). Cells were counted, then seeded at a density of 20,000 cells/cm^2 on poly-D-lysine (5 μg/ml PDL, Sigma #P6407) coated plates. […]

[5] = system: human dermal skin fibroblasts; assay: Cell death assay in human dermal skin fibroblasts (propidium iodide); type: cell-based; details: high dose vacor (100 μM), 72 h vs DMSO
Protocol: as §1

[6] = system: freshly plated P2 mouse Schwann cells; assay: Cell death in freshly plated P2 mouse Schwann cells (propidium iodide, DAPI, SOX10); type: cell-based; details: 100 μM vacor for 72 hours vs DMSO
Protocol: Freshly plated mouse Schwann cells were obtained from P2 sciatic and brachial nerves. Nerves were digested with trypsin and collagenase, centrifuged and plated on laminin/Poly-L-lysine coated glass coverslips in defined medium as previously described (Arthur-Farraj et al., 2011).
Sciatic and optic nerves were dissected from Wt and Sarm1 KO mice and directly embedded in O.C.T. compound, without fixing, and stored at −80° C. until ready for cryosectioning. Cryosections at 5 μm thick were collected onto SuperFrost plus slides. These slides were post-fixed in 4% paraformaldehyde (PFA) at room temperature for 10 mins followed by three washes of 5 mins each with 1×PBS. The slides were then immersed in 100% methanol at −20° C. for 10 mins, followed by three washes of 5 mins each with 1×PBS. The slides were then blocked in 5% horse serum (HS)/0.2% Triton x-100/PBS for 30 mins at room temperature. Primary antibodies were diluted in blocking solution and slides were incubated overnight at 4° C. The following day, the slides were washed once for 5 mins with 1×PBS, twice for 5 mins with 0.1% tween/PBS and finally once again for 5 mins with 1×PBS before adding secondary antibodies. The corresponding secondary antibodies were diluted at 1:500 along with DAPI at 1:2000 for 2 hrs at room temperature and kept in the dark. […]

O=C(NCc1cccnc1)Nc1ccc([N+](=O)[O-])cc1 [vacor, Vacor]
neurotoxic effects in humans [1]: severe neurotoxic effects
cell death by propidium iodide (P.I.) staining and phase contrast [2]: susceptible to cellular dysfunction and death; also recorded: substantial increase in P.I. staining
cell death by propidium iodide (P.I.) staining [3]: completely insensitive; also recorded: no cell death occurs
cell death judged by DAPI nuclear staining and SOX10 immunocytochemistry [4]: died within hours; also recorded: substantial cell death
cell death by propidium iodide (P.I.) staining [5]: completely insensitive; also recorded: no cell death occurs
cell death judged by propidium iodide (P.I) and DAPI nuclear staining and SOX10 immunocytochemistry [6]: completely insensitive; also recorded: no cell death
